Data from ChEMBL document CHEMBL1201862, “PubChem BioAssay data set” (2004).
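Protocol summary: plate cells (96-well), add compound at 5 concentrations, incubate 48 h, interpolate endpoints linearly. GI50 marks 50% less growth.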 Activity calls are given as the source filed them. No stated cut-off is given here; in the data, active = GI50 up to about 1.1 µM and inactive = higher.

Legend:
Experiment in all cases: NCI anticancer screen, dose series, 48 h
UACC-62 = test system: UACC-62
SN12C = test system: SN12C
Hs-578T = test system: Hs-578T
HCT-116 = test system: HCT-116
SK-OV-3 = test system: SK-OV-3
IGROV-1 = test system: IGROV-1
SK-MEL-28 = test system: SK-MEL-28
HOP-92 = test system: HOP-92
SR = test system: SR
K562 = test system: K562
NCI/ADR-RES = test system: NCI/ADR-RES
M14 = test system: M14
CCRF-CEM = test system: CCRF-CEM
U-251 = test system: U-251
OVCAR-4 = test system: OVCAR-4
EKVX = test system: EKVX
CAKI-1 = test system: CAKI-1
COLO 205 = test system: COLO 205
ACHN = test system: ACHN
NCI-H460 = test system: NCI-H460
HCC 2998 = test system: HCC 2998
RPMI-8226 = test system: RPMI-8226
UACC-257 = test system: UACC-257
OVCAR-3 = test system: OVCAR-3
HCT-15 = test system: HCT-15
786-0 = test system: 786-0
A498 = test system: A498
SW-620 = test system: SW-620
HT-29 = test system: HT-29
SF-268 = test system: SF-268
HOP-62 = test system: HOP-62
UO-31 = test system: UO-31
DU-145 = test system: DU-145
SF-295 = test system: SF-295
RXF 393 = test system: RXF 393
NCI-H522 = test system: NCI-H522
MOLT-4 = test system: MOLT-4
Malme-3M = test system: Malme-3M
OVCAR-8 = test system: OVCAR-8
HL-60 = test system: HL-60
BT-549 = test system: BT-549
SK-MEL-2 = test system: SK-MEL-2
MDA-MB-435 = test system: MDA-MB-435
MDA-MB-231 = test system: MDA-MB-231
SNB-19 = test system: SNB-19
PC-3 = test system: PC-3
SK-MEL-5 = test system: SK-MEL-5
A549 = test system: A549
LOX IMVI = test system: LOX IMVI
MDA-N = test system: MDA-N
SNB-75 = test system: SNB-75
OVCAR-5 = test system: OVCAR-5
TK-10 = test system: TK-10
NCI-H226 = test system: NCI-H226
T47D = test system: T47D
NCI-H23 = test system: NCI-H23
KM12 = test system: KM12
SF-539 = test system: SF-539
MCF7 = test system: MCF7

Measured: GI50

CN1CCc2cc(N)cc3c2C1Cc1ccc(O)c(O)c1-3 (stereo not given)
36.4 µM: HCT-15
inactive: UACC-62 23.7 µM | SN12C 34.5 µM | Hs-578T 53.5 µM | HCT-116 32.2 µM | SK-OV-3 52.7 µM | IGROV-1 33.7 µM | SK-MEL-28 35.6 µM | HOP-92 51.2 µM | SR 28.4 µM | K562 24.9 µM | NCI/ADR-RES 36.8 µM | M14 34 µM | CCRF-CEM 3.75 µM | U-251 39.5 µM | OVCAR-4 31.6 µM | EKVX 43.6 µM | CAKI-1 37.2 µM | COLO 205 37.9 µM | ACHN 25.8 µM | NCI-H460 30.5 µM | HCC 2998 12.6 µM | RPMI-8226 21.8 µM | UACC-257 16.3 µM | OVCAR-3 27.4 µM | 786-0 33 µM | A498 57.7 µM | SW-620 31.8 µM | HT-29 34.4 µM | SF-268 6.43 µM | HOP-62 49.3 µM | UO-31 42.8 µM | DU-145 56.6 µM | SF-295 39.8 µM | RXF 393 55.7 µM | NCI-H522 27.2 µM | MOLT-4 3.92 µM | Malme-3M 37.8 µM | OVCAR-8 30.7 µM | HL-60 25.8 µM | BT-549 58.2 µM | SK-MEL-2 40.9 µM | MDA-MB-435 36.8 µM | MDA-MB-231 75 µM | SNB-19 46.6 µM | PC-3 38.2 µM | SK-MEL-5 20.4 µM | A549 34.2 µM | LOX IMVI 18.6 µM | MDA-N 34.7 µM | SNB-75 40.9 µM | OVCAR-5 85.1 µM | TK-10 24.7 µM | NCI-H226 32.7 µM | T47D 61.8 µM | NCI-H23 46.8 µM | KM12 33.4 µM | SF-539 38 µM

COc1ccc(C2=NNC(=O)c3ccccc3N2c2nc(-c3cccs3)nc3cc(OC)c(OC)cc23)cc1
5.92 µM: HCT-15
active: SR 0.673 µM
inactive: UACC-62 2.34 µM | SN12C 3.17 µM | Hs-578T 3.85 µM | HCT-116 3.92 µM | SK-OV-3 17 µM | IGROV-1 11.1 µM | SK-MEL-28 2.39 µM | HOP-92 2.86 µM | K562 24.3 µM | NCI/ADR-RES 5.55 µM | M14 4.29 µM | U-251 3.3 µM | OVCAR-4 1.8 µM | EKVX 20.9 µM | CAKI-1 14.6 µM | COLO 205 2.86 µM | ACHN 3.07 µM | NCI-H460 4.43 µM | HCC 2998 2.96 µM | RPMI-8226 3.71 µM | UACC-257 4.19 µM | OVCAR-3 2.61 µM | 786-0 2.32 µM | A498 2.61 µM | SW-620 4.86 µM | HT-29 3.15 µM | SF-268 6.46 µM | HOP-62 3.13 µM | UO-31 4.34 µM | DU-145 6.49 µM | SF-295 3.95 µM | NCI-H522 5.98 µM | MOLT-4 16.6 µM | Malme-3M 2.6 µM | OVCAR-8 5.05 µM | BT-549 2.62 µM | SK-MEL-2 5.27 µM | MDA-MB-435 3.75 µM | MDA-MB-231 2.81 µM | SNB-19 2.79 µM | PC-3 4.68 µM | SK-MEL-5 3.72 µM | A549 5.6 µM | MCF7 3.36 µM | SNB-75 3.81 µM | OVCAR-5 27.7 µM | TK-10 5.24 µM | NCI-H226 4.56 µM | T47D 2.76 µM | NCI-H23 7.13 µM | KM12 4.09 µM | SF-539 2.79 µM

COc1cc(S(=O)(=O)Nc2ccc(-c3csc(N4C(=O)C(C)SC4c4ccccc4)n3)cc2)ccc1Cl (stereo not given)
> 100 µM: HCT-15
inactive: UACC-62 21.4 µM | SN12C 94.2 µM | HCT-116 34.8 µM | IGROV-1 17.5 µM | SK-MEL-28 24.7 µM | HOP-92 31.9 µM | SR 25 µM | K562 30.6 µM | NCI/ADR-RES > 100 µM | M14 > 100 µM | CCRF-CEM 40 µM | OVCAR-4 39.6 µM | EKVX 7.52 µM | CAKI-1 > 100 µM | COLO 205 27.2 µM | ACHN > 100 µM | RPMI-8226 38.4 µM | UACC-257 37.4 µM | OVCAR-3 > 100 µM | 786-0 20 µM | A498 58.6 µM | SW-620 35.4 µM | HT-29 11.8 µM | SF-268 19.7 µM | UO-31 > 100 µM | DU-145 40.2 µM | RXF 393 15.5 µM | NCI-H522 33.8 µM | MOLT-4 33 µM | Malme-3M 80.4 µM | OVCAR-8 > 100 µM | HL-60 21.1 µM | BT-549 20.9 µM | MDA-MB-435 24.6 µM | SNB-19 35.7 µM | PC-3 19.9 µM | SK-MEL-5 19.5 µM | A549 > 100 µM | LOX IMVI 10.1 µM | MDA-N 19.5 µM | MCF7 17.9 µM | OVCAR-5 > 100 µM | T47D 15.2 µM | NCI-H23 51.4 µM | SF-539 13.4 µM
active: Hs-578T 0.794 µM | SK-MEL-2 0.979 µM | SNB-75 0.0555 µM | NCI-H226 0.0853 µM | KM12 0.082 µM

c1ccc([P+](CCNCCNCC[P+](c2ccccc2)(c2ccccc2)c2ccccc2)(c2ccccc2)c2ccccc2)cc1
> 100 µM: HCT-15
inactive: UACC-62 > 100 µM | SN12C > 100 µM | Hs-578T > 100 µM | HCT-116 > 100 µM | SK-OV-3 > 100 µM | IGROV-1 > 100 µM | SK-MEL-28 > 100 µM | NCI/ADR-RES > 100 µM | M14 > 100 µM | U-251 > 100 µM | OVCAR-4 > 100 µM | EKVX > 100 µM | COLO 205 > 100 µM | ACHN > 100 µM | NCI-H460 > 100 µM | HCC 2998 > 100 µM | RPMI-8226 > 100 µM | UACC-257 > 100 µM | OVCAR-3 > 100 µM | 786-0 > 100 µM | A498 > 100 µM | SW-620 > 100 µM | HT-29 > 100 µM | SF-268 > 100 µM | HOP-62 > 100 µM | UO-31 > 100 µM | DU-145 > 100 µM | SF-295 > 100 µM | RXF 393 > 100 µM | MOLT-4 > 100 µM | OVCAR-8 > 100 µM | BT-549 > 100 µM | SK-MEL-2 > 100 µM | MDA-MB-435 > 100 µM | MDA-MB-231 > 100 µM | SNB-19 > 100 µM | SK-MEL-5 > 100 µM | A549 > 100 µM | MDA-N > 100 µM | MCF7 > 100 µM | SNB-75 > 100 µM | OVCAR-5 > 100 µM | TK-10 > 100 µM | NCI-H226 > 100 µM | T47D > 100 µM | NCI-H23 > 100 µM | KM12 > 100 µM | SF-539 > 100 µM

COc1c2c(cc3oc(=O)ccc13)OC(C)(C)C=C2 [XANTHOXYLETIN]
23.6 µM: HCT-15
inactive: UACC-62 22.6 µM | SN12C 29 µM | Hs-578T 29.9 µM | HCT-116 18.6 µM | SK-OV-3 40.5 µM | IGROV-1 27.6 µM | SK-MEL-28 32.6 µM | HOP-92 7.29 µM | SR 11.5 µM | K562 35.2 µM | NCI/ADR-RES 26 µM | M14 25.1 µM | U-251 24.9 µM | EKVX 37.9 µM | CAKI-1 2.26 µM | COLO 205 25.4 µM | ACHN 27.9 µM | NCI-H460 24.2 µM | HCC 2998 18.7 µM | RPMI-8226 24.5 µM | UACC-257 31.7 µM | OVCAR-3 37.9 µM | 786-0 22.4 µM | SW-620 26.1 µM | HT-29 35.8 µM | SF-268 41.9 µM | HOP-62 34.9 µM | UO-31 25.8 µM | DU-145 20.4 µM | SF-295 34.1 µM | NCI-H522 21 µM | MOLT-4 23.8 µM | Malme-3M 30.1 µM | OVCAR-8 24.2 µM | HL-60 15.8 µM | BT-549 25.6 µM | SK-MEL-2 23 µM | MDA-MB-435 27.2 µM | MDA-MB-231 19.5 µM | SNB-19 35.6 µM | SK-MEL-5 21.8 µM | A549 31.7 µM | LOX IMVI 21.8 µM | MDA-N 29.4 µM | MCF7 25.4 µM | SNB-75 22 µM | TK-10 30.9 µM | NCI-H226 41.1 µM | T47D 1.48 µM | NCI-H23 23.6 µM | KM12 19.2 µM | SF-539 36.6 µM
